From patent publication US4512986A, “Progrestationally active steroids” (priority 1983, dated 1985)

Target: T1, Cytosol Progesterone Receptor of the Estrogen-primed Immature Rabbit Uterus (Oryctolagus cuniculus, UniProt P06186)
T1 construct: cytosol progesterone receptor of the estrogen-primed immature rabbit uterus; tissue Dutchland Laboratories, Inc., Denver, Pa (animals); host or cells: uterus cytosol of estradiol-treated immature female New Zealand White rabbits
T1 sequence (P06186 1-930): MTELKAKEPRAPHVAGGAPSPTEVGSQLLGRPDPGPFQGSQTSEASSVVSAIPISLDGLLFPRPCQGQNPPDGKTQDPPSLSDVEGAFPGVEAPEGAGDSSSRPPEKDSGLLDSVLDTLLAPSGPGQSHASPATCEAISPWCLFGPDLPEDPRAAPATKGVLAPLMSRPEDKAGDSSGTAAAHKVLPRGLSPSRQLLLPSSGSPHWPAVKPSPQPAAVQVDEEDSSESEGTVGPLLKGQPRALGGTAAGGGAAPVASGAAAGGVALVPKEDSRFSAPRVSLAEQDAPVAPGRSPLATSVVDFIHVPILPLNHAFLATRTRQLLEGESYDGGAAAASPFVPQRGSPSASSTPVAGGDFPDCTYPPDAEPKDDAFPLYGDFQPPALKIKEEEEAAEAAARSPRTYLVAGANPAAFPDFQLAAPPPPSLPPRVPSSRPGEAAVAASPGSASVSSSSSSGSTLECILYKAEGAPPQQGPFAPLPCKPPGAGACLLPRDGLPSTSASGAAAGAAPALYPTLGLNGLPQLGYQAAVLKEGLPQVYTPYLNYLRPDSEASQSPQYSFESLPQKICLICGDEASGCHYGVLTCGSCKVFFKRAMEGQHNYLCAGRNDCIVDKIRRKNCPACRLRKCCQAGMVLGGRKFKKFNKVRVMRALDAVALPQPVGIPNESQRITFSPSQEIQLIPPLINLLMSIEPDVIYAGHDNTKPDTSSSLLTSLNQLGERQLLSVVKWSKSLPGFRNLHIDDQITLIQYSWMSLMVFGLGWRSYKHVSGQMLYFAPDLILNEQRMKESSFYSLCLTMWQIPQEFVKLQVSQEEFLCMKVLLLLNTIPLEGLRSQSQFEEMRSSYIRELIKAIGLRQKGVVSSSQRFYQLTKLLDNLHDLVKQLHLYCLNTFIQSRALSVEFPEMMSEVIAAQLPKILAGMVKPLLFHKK
Assay: Relative binding affinity for progesterone receptor (competition with 3H-progesterone)
Parameters: species or system rabbit (New Zealand White)

SMILES: C#C[C@]1(C(C)=O)CC[C@H]2[C@@H]3CCC4=CC(=O)CC[C@]4(C)[C@H]3CC[C@@]21C [17α-Ethynylprogesterone, 17α-ethynylprogesterone]
- RBA, mean of assays (X±S.D.) (16 to 18 hour incubation at 0° C., spurious value 11 excluded): 189±55
- RBA (Assay 1, 16-18 hour incubation, progesterone = 100, 5α-dihydro-17α-ethynyl: lot 1): 156%
- RBA (Assay 2, 16-18 hour incubation, progesterone = 100, 5α-dihydro-17α-ethynyl: lot 1): 267%
- RBA (Assay 3, 16-18 hour incubation, progesterone = 100, 5α-dihydro-17α-ethynyl: lot 1): 144%
- RBA (two-hour incubation at 0° C.): 352
